Tests used:
Assay in all cases: relative viability (nuclei count vs DMSO), 5 days (fraction); higher = more cells survive
Selumetinib + Crizotinib = compound: Cn1cnc2c(F)c(Nc3ccc(Br)cc3Cl)c(C(=O)NOCCO)cc21 [Selumetinib] + C[C@@H](Oc1cc(-c2cnn(C3CCNCC3)c2)cnc1N)c1c(Cl)ccc(F)c1Cl [Crizotinib] (partner 1 µM)
How it was run: (§1)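 Nuclei were stained with Hoechst during a one-step fixation (final 0.05% Triton X-100, 1% formaldehyde, 1 ug/ml Hoechst) carried out 5 days after dosing, then counted on 4× images. The cells, lung cancer lines in 1536-well plates, had been dosed by pin tool the day after seeding with one drug alone or a fixed anchor-drug dose plus five library-drug doses (not always all listed) in √10 steps. Relative viability is the nuclei count in treated wells divided by that in vehicle wells, and each value is the median of duplicate plates.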

Venetoclax + AZD7762 = compound: CC1(C)CCC(CN2CCN(c3ccc(C(=O)NS(=O)(=O)c4ccc(NCC5CCOCC5)c([N+](=O)[O-])c4)c(Oc4cnc5[nH]ccc5c4)c3)CC2)=C(c2ccc(Cl)cc2)C1 [Venetoclax] + NC(=O)Nc1cc(-c2cccc(F)c2)sc1C(=O)N[C@H]1CCCNC1 [AZD7762] (partner 0.2 µM)
How it was run: as §1

Selumetinib + Foretinib = compound: Cn1cnc2c(F)c(Nc3ccc(Br)cc3Cl)c(C(=O)NOCCO)cc21 [Selumetinib] + COc1cc2c(Oc3ccc(NC(=O)C4(C(=O)Nc5ccc(F)cc5)CC4)cc3F)ccnc2cc1OCCCN1CCOCC1 [Foretinib] (partner 0.25 µM)
How it was run: as §1

Venetoclax + Olaparib = compound: CC1(C)CCC(CN2CCN(c3ccc(C(=O)NS(=O)(=O)c4ccc(NCC5CCOCC5)c([N+](=O)[O-])c4)c(Oc4cnc5[nH]ccc5c4)c3)CC2)=C(c2ccc(Cl)cc2)C1 [Venetoclax] + O=C(c1cc(Cc2n[nH]c(=O)c3ccccc23)ccc1F)N1CCN(C(=O)C2CC2)CC1 [Olaparib] (partner 8 µM)
How it was run: as §1

| Cell Line | relative viability (Selumetinib + Crizotinib; first compound 0.02 µM) | relative viability (Selumetinib + Crizotinib; first compound 0.06325 µM) | relative viability (Selumetinib + Crizotinib; first compound 0.2 µM) | relative viability (Selumetinib + Crizotinib; first compound 0.6325 µM) | relative viability (Venetoclax + AZD7762; first compound 0.01 µM) | relative viability (Venetoclax + AZD7762; first compound 0.03162 µM) | relative viability (Venetoclax + AZD7762; first compound 0.1 µM) | relative viability (Venetoclax + AZD7762; first compound 0.3162 µM) | relative viability (Venetoclax + AZD7762; first compound 1 µM) | relative viability (Selumetinib + Foretinib; first compound 0.02 µM) | relative viability (Selumetinib + Foretinib; first compound 0.06325 µM) | relative viability (Selumetinib + Foretinib; first compound 0.2 µM) | relative viability (Selumetinib + Foretinib; first compound 0.6325 µM) | relative viability (Venetoclax + Olaparib; first compound 0.01 µM) | relative viability (Venetoclax + Olaparib; first compound 0.03162 µM) | relative viability (Venetoclax + Olaparib; first compound 0.1 µM) | relative viability (Venetoclax + Olaparib; first compound 0.3162 µM) | relative viability (Venetoclax + Olaparib; first compound 1 µM) |
| --- | --- | --- | --- | --- | --- | --- | --- | --- | --- | --- | --- | --- | --- | --- | --- | --- | --- | --- |
| NCI-H1437 | 0.922 | 0.896 | 0.829 | 0.561 | 1.14 | 1.14 | 1.11 | 1.08 | 1.07 | 1.33 | 1.3 | 1.17 | 0.708 | 0.607 | 0.616 | 0.624 | 0.615 | 0.601 |
| NCI-H1651 | 0.973 | 0.8 | 0.821 | 0.766 | 0.505 | 0.481 | 0.486 | 0.428 | 0.386 | 0.758 | 0.731 | 0.67 | 0.673 | 0.157 | 0.204 | 0.171 | 0.171 | 0.188 |
| NCI-H1666 | 0.956 | 0.791 | 0.829 | 0.614 | 0.915 | 0.849 | 0.715 | 0.839 | 0.803 | 0.827 | 0.839 | 0.791 | 0.734 | 0.77 | 0.741 | 0.711 | 0.759 | 0.62 |
| NCI-H1703 | 0.664 | 0.653 | 0.647 | 0.616 | 0.157 | 0.136 | 0.122 | 0.129 | 0.124 | 0.438 | 0.318 | 0.369 | 0.32 | 0.35 | 0.328 | 0.333 | 0.44 | 0.476 |
| NCI-H1734 | 0.775 | 0.52 | 0.591 | 0.574 | 0.529 | 0.671 | 0.474 | 0.665 | 0.571 | 0.88 | 0.843 | 0.672 | 0.611 | 0.598 | 0.656 | 0.662 | 0.634 | 0.634 |
| NCI-H1755 | 0.895 | 0.765 | 0.802 | 0.842 | 0.445 | 0.471 | 0.379 | 0.386 | 0.411 | 0.874 | 0.807 | 0.824 | 0.847 | 0.879 | 0.873 | 0.917 | 0.832 | 0.831 |
| NCI-H1915 | 0.876 | 0.849 | 0.677 | 0.467 | 0.657 | 0.658 | 0.655 | 0.695 | 0.611 | 1.16 | 1.03 | 0.812 | 0.529 | 0.275 | 0.288 | 0.264 | 0.272 | 0.231 |
| NCI-H1944 | 1.03 | 0.887 | 0.497 | 0.71 | 0.74 | 0.573 | 0.429 | 0.479 | 0.468 | 0.898 | 0.796 | 0.69 | 0.536 | 0.627 | 0.394 | 0.392 | 0.418 | 0.406 |
| NCI-H1975 | 1.1 | 0.898 | 0.933 | 0.766 | 0.737 | 0.709 | 0.672 | 0.822 | 0.67 | 0.992 | 1.09 | 1.03 | 0.724 | 0.754 | 0.821 | 0.74 | 0.811 | 0.674 |
| NCI-H1993 | 0.781 | 0.766 | 0.749 | 0.748 | 0.635 | 0.787 | 0.651 | 0.816 | 0.763 | 0.663 | 0.744 | 0.745 | 0.671 | 1.03 | 0.952 | 0.986 | 0.99 | 1.08 |
| NCI-H2085 | 0.889 | 0.89 | 0.822 | 0.704 | 0.802 | 1.02 | 0.924 | 0.962 | 0.916 | 0.728 | 0.829 | 0.536 | 0.567 | 0.676 | 0.758 | 0.744 | 0.755 | 0.75 |
| NCI-H2087 | 0.989 | 0.706 | 0.665 | 0.434 | 1.26 | 1.32 | 1.17 | 1.46 | 1.56 | 0.982 | 0.718 | 0.507 | 0.304 | 0.611 | 0.736 | 0.45 | 0.567 | 0.692 |
| NCI-H2126 | 1.01 | 1 | 0.913 | 0.887 | 1.06 | 1.01 | 0.932 | 1.02 | 1 | 1.13 | 0.993 | 1.05 | 0.933 | 0.85 | 0.936 | 0.838 | 0.915 | 0.913 |
| NCI-H2170 | 1.17 | 1.11 | 1.03 | 1.15 | 0.735 | 0.805 | 0.692 | 0.806 | 0.763 | 0.987 | 0.954 | 0.967 | 0.952 | 0.57 | 0.639 | 0.573 | 0.615 | 0.591 |
| NCI-H2347 | 0.771 | 0.645 | 0.42 | 0.511 | 0.729 | 0.894 | 0.663 | 0.723 | 0.76 | 0.93 | 0.704 | 0.451 | 0.421 | 0.578 | 0.558 | 0.514 | 0.633 | 0.537 |
| NCI-H2405 | 0.774 | 0.774 | 0.716 | 0.549 | 0.628 | 0.722 | 0.744 | 0.748 | 0.657 | 1.05 | 0.983 | 0.909 | 0.545 | 0.833 | 0.881 | 0.915 | 0.929 | 0.78 |
| NCI-H3122 | 0.238 | 0.234 | 0.23 | 0.236 | 1.07 | 0.997 | 0.909 | 0.954 | 1.03 | 0.866 | 0.774 | 0.719 | 0.583 | 0.644 | 0.671 | 0.637 | 0.667 | 0.603 |
